The source of these data is patent US10072009B2, “N-substituted beta-carbolinium compounds as potent P-glycoprotein inducers” (Council of Scientific and Industrial Research, priority 2014, dated 2018).

Where two headings read alike, the source gives them in different places.

The subject of one data set is P-glycoprotein. The data set can be described thus: P-glycoprotein-induction assay (rhodamine123 cell exclusion method) in LS-180 cells. Particulars: for % Rh123 accumulation in LS-180 cells after 48 h: control = 100; for EC50: read-out: Pgp induction EC50 value, LS180 cells treated 48 h, Rh123 fluorescence vs concentration.
Data set [1] deals with acetylcholinesterase (AChE). Particulars: read-out: AChE inhibition IC50; cited from earlier work.
Data set [2] has as its system mouse leukemia cells L-1210. Conditions: read-out: ED50, suppression of proliferation of L-1210 cells; cited from earlier work.
A short description of data set [3]: Thermodynamic equilibrium solubility. It counts as physicochemical. Particulars: for solubility: 25 °C, thermodynamic from solid. The method, then: Determination of thermodynamic equilibrium solubility. The compounds were first dissolved in methanol to prepare stock solutions (100 and 1000 μg/mL) Different concentrations of stock solutions were pipetted into the 96-well plates and the solvent was evaporated to ensure that solid drug was present in the beginning of the experiment. […] The plates were kept overnight for equilibration of drug in medium. Later, the plates were centrifuged at 3000 rpm for 15 min (Jouan centrifuge BR4i). Supernatant (50 μl) was pipetted into UV 96-well plates (Corning® 96 Well Clear Flat Bottom UV-Transparent Microplate) for analyses with plate reader (SpectraMax Plus384) at λmax of 350 nm. The analyses were performed in triplicate for each compound. The solubility curve of concentration (μg/mL) vs absorbance was plotted to find out saturation point and the corresponding concentration was noted. The solubility of fascaplysin (1) and compounds 6 and 11 was determined.

The mark [4] stands for this setting: compounds at 5 μM (table footnote), decrease indicates Pgp induction.

Procedure for P-glycoprotein: P-glycoprotein-induction assay. All synthesized compounds were screened for their ability to induce P-glycoprotein by using rhodamine123 (Rh123) cell exclusion method. In this method, the P-glycoprotein function was evaluated in terms of rhodamine 123 (Rh123) accumulation and efflux. Briefly, the protocol used is as follows: Colorectal LS180 cells Colorectal LS-180 cells [obtained from ECACC (European Collection of Cell Cultures) catalogue number: 87021202; passage number 52] were seeded at a density of 2×10^4 per well of 96 well plate and were allowed to grow for next 24 h. Cells were further incubated with the test compounds, and were diluted to a final concentration of 100 nM and rifampicin (standard) to a final concentration of 10 μM in complete media for 48 h. The final concentration of DMSO was kept at 0.1%. Drugs were removed and cells were incubated with HANKS buffer for 40 minutes before further incubation with HANKS buffer (containing 10 μM of Rh123 as a P-glycoprotein substrate) for 90 minutes. At the end of Rh123 treatment cells were washed four times with cold PBS followed by cell lysis for 1 h by using 200 μl of lysis buffer (0.1% Triton X-100 and 0.2 N NaOH). A total of 100 μl of lysate was used for reading fluorescence of Rh123 at 485 nm/529 nm Samples were normalized by dividing fluorescence of each sample with total protein present in the lysate. The Pgp-induction activity was measured in terms of the % intracellular accumulation of rhodamine 123/total protein inside LS180 cells. The decrease in the % intracellular accumulation (compared to control) of Rh123 indicates induction of P-glycoprotein as shown in Table 1. Rifampicin (10 μM) was used as a reference P-glycoprotein inducer. Statistical comparisons were made between control vs compounds by using Bonferroni test. The p value <0.5 was considered to be significant.
The decrease in % intracellular accumulation (compared to control) of Rh123 indicates induction of Pgp. Rifampicin (10 μM) was used as a reference Pgp inducer.
EC50 determination in p-glycoprotein-induction assay. […] For EC50 determination, different concentrations of compound were used to treat LS180 cells for 48 h. EC50 was determined by plotting fluoroscence of Rh123 against concentration of compound.

Turning to 6-chloro-fascaplysin [Compound 5], the “% Rh123 accumulation in LS-180 cells after 48 h” value (“% Rh123 accumulation” below) in the data set on P-glycoprotein (setting [4]) was found to be 59.2 ± 6.7 %.
The IC50 is the concentration needed to halve the response being measured. What is called solubility is how much of the substance goes into solution per volume. Regarding `O=C1c2ccccc2-[n+]2ccc3c([nH]c4ccccc43)c21.[Cl-]` [Compound 1, Fascaplysin], in data set [1], the IC50 is 1490 nM. Further, the EC50 in data set [2] is 200 nM; in the data set with P-glycoprotein, 2.8 nM. Besides, the solubility in data set [3] (aqueous buffer, phosphate buffer saline, read-out: Solubility in PBS) was > 1500 µg/mL; in data set [3] (simulated gastric fluid, simulated gastric fluid, read-out: Solubility in SGF), > 1500 µg/mL; in data set [3] (simulated intestinal fluid, read-out: Solubility in SIF), > 1500 µg/mL; in data set [3] (water, water, 25±1° C., thermodynamic equilibrium, read-out: Solubility in Water) it was > 800 µg/mL. Further, the “Solubility in Water” value in data set [3] (water, 25±1° C., thermodynamic equilibrium) was >1500 µg/mL.
In the case of `O=C1c2ccc(Cl)cc2-[n+]2ccc3c([nH]c4ccccc43)c21` [Compound 2, 4-chloro-fascaplysin], the “% Rh123 accumulation” value in the data set on P-glycoprotein (setting [4]) came out at 57.1 ± 9.2 %.
On the same count and under the same terms, in the case of `O=C1c2cc(F)c(Cl)cc2-[n+]2ccc3c([nH]c4ccccc43)c21` [Compound 3, 4-chloro-5-fluoro-fascaplysin] it was 55.5 ± 6.9 %.
Still for that read-out and setting: in the case of `O=C1c2ccc(Cl)c(Cl)c2-[n+]2ccc3c([nH]c4ccccc43)c21` [Compound 4, 3,4-dichloro-fascaplysin] it was 57.8 ± 8.3 %.
Take `O=C1c2cc(F)c(F)cc2-[n+]2ccc3c([nH]c4ccccc43)c21` [Compound 6, 4,5-difluoro-fascaplysin]: in the data set with P-glycoprotein (setting [4]), the “% Rh123 accumulation” value was found to be 49.6 ± 1.2 %. Moreover, in the data set with P-glycoprotein, the EC50 worked out at 2 nM. The “Solubility in Water” value in data set [3] is >1500 µg/mL. In addition, the solubility in data set [3] (aqueous buffer, Solubility in PBS) is 80 µg/mL; in data set [3] (fassgf or other biorelevant, Solubility in SIF), < 5 µg/mL; in data set [3] (simulated gastric fluid, Solubility in SGF) it was 80 µg/mL; in data set [3] (water, Solubility in Water) it was > 800 µg/mL.
Take `O=C1c2cc(Cl)ccc2-[n+]2ccc3c([nH]c4ccccc43)c21` [Compound 7, 5-chloro-fascaplysin]: the “% Rh123 accumulation” value in the data set with P-glycoprotein (setting [4]) is reported as 58.7 ± 7.8 %.
Turning to `Cn1c2ccccc2c2cc[n+](C)c(C(=O)c3ccccc3)c21` [Compound 8, 1-benzoyl-9,N-dimethyl beta-carbolinium iodide], the “% Rh123 accumulation” value in the data set with P-glycoprotein (setting [4]) was 75.2 ± 9.1 %.
Still for that read-out and setting: in the case of `Cn1c2ccccc2c2cc[n+](C)c(C(=O)c3ccccc3Cl)c21` [Compound 9, 1-(2-chloro-benzoyl)-9, N,N-dimethyl beta-carbolinium iodide] it was 71.4 ± 8.4 %.
Consider `Cn1c2ccccc2c2cc[n+](C)c(C(=O)c3c[nH]c4ccccc34)c21` [Compound 10, 1-(3-indoloyl)-9,N-dimethyl beta-carbolinium iodide], for which, in the data set on P-glycoprotein (setting [4]), the “% Rh123 accumulation” value was 77.6 ± 7.6 %.
For the compound `Cn1c2ccccc2c2cc[n+](C)c(C(=O)c3ccccc3Br)c21` [Compound 11, 1-(2-bromo-benzoyl)-9,N-dimethyl beta-carbolinium iodide], the “% Rh123 accumulation” value in the data set with P-glycoprotein (setting [4]) is 70.1 ± 6.7 %. Further, the EC50 in the data set with P-glycoprotein was found to be 3 nM. In addition, the “Solubility in Water” value in data set [3] amounted to 800 µg/mL. Further, the solubility in data set [3] (water, Solubility in Water) is > 800 µg/mL.
For `Cn1c2ccccc2c2cc[n+](C)c(C(=O)c3ccc(C(F)(F)F)cc3)c21` [Compound 12, 1-(4-trifluoromethyl-benzoyl)-9,N-dimethyl beta-carbolinium iodide], the “% Rh123 accumulation” value in the data set with P-glycoprotein (setting [4]) came out at 78.5 ± 5.8 %.
As to `Cn1c2ccccc2c2cc[n+](C)c(C(=O)c3ccccc3F)c21` [Compound 13, 1-(2-fluoro-benzoyl)-9,N-dimethyl beta-carbolinium iodide], the “% Rh123 accumulation” value with P-glycoprotein (setting [4]) was determined as 79.0 ± 6.0 %.
`CO[C@H]1/C=C/O[C@@]2(C)Oc3c(C)c(O)c4c(O)c(c(/C=N/N5CCN(C)CC5)c(O)c4c3C2=O)NC(=O)/C(C)=C\C=C\[C@H](C)[C@H](O)[C@@H](C)[C@@H](O)[C@@H](C)[C@H](OC(C)=O)[C@@H]1C` [Rifampicin, reference compound]: the “% Rh123 accumulation” value with P-glycoprotein (rifampicin 10 μM, reference Pgp inducer) was 67.1 ± 4.6 %.
